Assay results from patent US20050009787A1, “Micronutrient phosphates as dietary and health supplements” (priority 2001, published 2005).
Values belong to the compound of their own block, whether it stands above or below them.

Legend:
[1] = cited from earlier work
[2] = Stability of tocopheryl phosphate arginine complex in a beverage (pH, turbidity, degradation); assay type: physicochemical
Method: Four ml was added to each 500 ml bottle using sterile conditions. Three treatment groups were used for each drink: 4° C., 37° C. and room temperature (RT). The drinks were monitored for bacterial growth and contamination on a weekly basis, both visually, and by plating a sample onto LB agar plates, which were grown for 48 hours at 37° C.

[3] = Bioavailability of tocopheryl phosphate in rats (tocopheryl phosphate in liver, ES/MS); assay type: in vivo, male Sprague-Dawley rats; conditions: rat
Method: The rats were dosed using the following protocol: • (a) A single dose of the compound was administered to male Sprague-Dawley rats (see Table 1). Oral gavage was with an 18 g gavage needle and 1 ml syringe. Intravenous was with a 26 g hypodermic needle and 1 ml syringe. • (b) Twenty four hours after administrations, the rats were anaesthetized with 60 mg/kg of Nembutal (an anaesthetic from Meril, USA) by intra peritoneal injection. • (c) Once the rats were under deep anaesthesia, a sample of blood was taken from the tail vein, and the femoral vein was exposed and injected with 500 units of heparin. The abdominal cavity was opened and the rat perfused with saline. The liver, heart, epidydimal fat pad, hind-leg muscle and brain was removed and frozen in liquid nitrogen.
The livers were extracted according to the following method: • (a) Homogenise 1 g of liver in 10 ml dichloromethane. • (b) Add 0.1 mg of ditocopheryl phosphate (1 mg/ml in 50% tetrahydrofuran) as an internal standard. • (c) Mix using homogeniser and centrifuge sample. • (d) Remove and evaporate dichloromethane. • (e) Add 9 ml of KOH (2M) and stir for one hour at room temperature. • (f) Add 10 ml hexane, shake and remove hexane (upper) layer. • (g) Add 10 ml HCl (2M) to the 9 ml KOH (2M) solution. • (h) Add 10 ml hexane, shake and remove hexane layer. • (i) Evaporate hexane layer to dryness.
The extracts were analysed and quantitated for TP (μg) content by electrospray mass spectrometry using the established calibration curve (tocopheryl phosphate vs ditocopheryl phosphate).
ES/MS analysis conditions: Sample was dissolved in 1 ml tetrahydrofuran (THF) containing 1% ammonia, 20 μl was injected into the sample loop. The sample was eluted with THF:water (9:1) 20 μl/min. Mass spectrometric analysis was conducted in negative ion mode with cone voltage of 40V using Micromass Platform.

Compound: COC1=C(OC)C(=O)C(C/C=C(\C)CC/C=C(\C)CC/C=C(\C)CC/C=C(\C)CC/C=C(\C)CC/C=C(\C)CC/C=C(\C)CC/C=C(\C)CC/C=C(\C)CCC=C(C)C)=C(C)C1=O [CoQ10, ubiquinone]
destruction of CoQ10 by boiling ([1]; boiling): no detectable destruction
destruction of CoQ10 by frying ([1]; frying): 14-32%

Compound: tocopheryl phosphate arginine complex
Turbidity ([2]; blue Musashi drink with TP, 4° C.): 12.54 NTU
Turbidity ([2]; blue Musashi drink with TP, 37° C.): 28.55 NTU
Turbidity ([2]; blue Musashi drink with TP, RT): 24.05 NTU
amount of degradation of the complex ([2]; in acidic drinks, at the pH required for biological stability): negligible
Turbidity ([2]; orange Musashi drink with TP, 4° C.): 232.0 NTU
Turbidity ([2]; orange Musashi drink with TP, 37° C.): 220.0 NTU
Turbidity ([2]; orange Musashi drink with TP, RT): 224.0 NTU

amount of tocopheryl phosphate detected in the livers ([3]; enteric coating preparation or oral solution): increase
amount of tocopheryl phosphate present in the liver after 24 hours ([3]; intravenous administration, vs controls): significant increase
Tocopheryl phosphate in liver ([3]; intravenous, 10 mg/kg single dose, 24 h after administration): 24.0 µg/g
Tocopheryl phosphate in liver ([3]; intravenous, 30 mg/kg single dose, 24 h): 28.0 µg/g
Tocopheryl phosphate in liver ([3]; oral (enteric coated), 30 mg/kg single dose, 24 h): 19.3 µg/g
Tocopheryl phosphate in liver ([3]; oral, 10 mg/kg single dose, 24 h): 19.2 µg/g
Tocopheryl phosphate in liver ([3]; oral, 30 mg/kg single dose, 24 h): 18.4 µg/g
Compound: Tocopheryl phosphate

amount of tocopheryl phosphate present compared to the controls ([3]; oral administration): did not result in a significant increase
Compound: CC(=O)Oc1c(C)c(C)c2c(c1C)CCC(C)(CCC[C@H](C)CCC[C@H](C)CCCC(C)C)O2 (some centres unmarked) [Tocopheryl acetate, reference compound]
